Test system: mouse-derived muscle cell line C2C12 (myotube cells)
Experiment: Evaluation of muscle insulin signal (pAkt Ser473/total Akt, Western blotting) in myotubes exposed to palmitic acid (FFA)
Assay type: cell-based
Settings: FIG. 2; for muscle insulin signal lowered by FFA (phosphorylation index, [(pAkt/Total Akt) Insulin+]/[(pAkt/Total Akt) Insulin-]): amino acid 1 mM added simultaneously with 0.5 mM palmitic acid (FFA), 100 nM insulin stimulation; for action on muscle insulin signal compared with positive control NAC: amino acid 1 mM versus N-acetylcysteine (NAC) 5 mM, 0.5 mM FFA
Protocol: Using mouse C3H skeletal muscle myoblast (C2C12 cell) (DS Pharma Biomedical Co., Ltd.), the evaluation was performed. Induction of differentiation into myotube cells (Myotubes) was performed using cells with myoblast passage number of 12 to 18. Myoblasts were seeded in a 12-well (diameter=3 cm) plate at 0.3×10^5 to 0.5×10^5/well. After confirmation that the cell proliferation state reached 90% confluent, the medium was replaced with DMEM culture medium supplemented with 2(w/v) % horse serum (HS) and 1(w/v) % penicillin-streptomycin-[…](w/v) % HS, 1(w/v) % […](w/v) % Gln/DMEM), and differentiation into myotube cells (Myotubes) was induced. After confirmation of differentiation into myotube cells (Myotubes), a muscle insulin signal evaluation system was constructed, and the action of each of isoleucine, glycine, and cystine was evaluated using the constructed evaluation system. […] After culturing overnight, the cells were preincubated for about 2 hr in DMEM (BSA/FFA free) with an amino acid concentration of 1/5, stimulated by incubation (15 min-20 min) with 100 nM insulin, and the myotube cells were collected (each n=3). From the collected cells, proteins were extracted with RIPA (Radio-Immunoprecipitation Assay) buffer (Cell Signaling Technologies Inc.), adjusted to a final protein concentration of 0.5 mg/mL, and used as samples. The expression levels of phosphorylated Akt (pAkt) (Ser473) and [NT] in the above-mentioned sample were quantified by the Western blotting (WB) method using anti-phosphorylated Akt (pAkt) (Ser473) antibody (#92715; Cell Signaling Technologies Inc.) and anti-[NT] antibody (#9272S; Cell Signaling Technologies Inc.). The expression level of each protein was quantified using Western blot-chemiluminescent imaging system (Fusion FX) (Vilber-Lourmat Inc.). Each amino acid was added simultaneously with FFA, and the muscle quality-improving effect was examined with the recovery of the muscle insulin signal as an index. The final concentration of each amino acid was adjusted to 1 mM. As a positive control, an antioxidative active substance N-acetylcysteine (NAC) 5 mM was used. From the measurement results of the expression levels of phosphorylated Akt (Ser473) and total Akt, the ratio of phosphorylated Akt and total Akt with insulin stimulation to the ratio of phosphorylated Akt and total Akt without insulin stimulation [(pAkt/Total Akt) Insulin+]/[(pAkt/Total Akt) Insulin-] was determined and shown in FIG. 2 as the phosphorylation index (stimulation index). In FIG. 2, the phosphorylation index is shown as mean±standard error for each sample.

Compound | muscle insulin signal lowered by FFA (phosphorylation index, [(pAkt/Total Akt) Insulin+]/[(pAkt/Total Akt) Insulin-]) | action on muscle insulin signal compared with positive control NAC
N[C@@H](CSSC[C@H](N)C(=O)O)C(=O)O [cystine, L-cystine] | restore the muscle insulin signal lowered by FFA | equal to or higher than that of NAC
NCC(=O)O [glycine] | restore the muscle insulin signal lowered by FFA | equal to or higher than that of NAC
CC[C@H](C)[C@H](N)C(=O)O [isoleucine, L-isoleucine] | restore the muscle insulin signal lowered by FFA | equal to or higher than that of NAC

Reference: patent US20210308084A1, “AGENT FOR IMPROVING MUSCLE QUALITY” (AJINOMOTO CO., INC., priority 2018, published 2021)
